Measured values: EP0516660B1, “USE OF S-ADENOSYL METHIONINE AS AN AGENT AGAINST VIRAL INFECTIONS BY RETROVIRUSES” (Grundmann, Ewald, Dr., priority 1990, dated 1991)

Tested on: HIV
Test: HIV-infected lymphocyte cultures, virus amount determined as radioactive reverse transcriptase in the culture supernatant
Type: cell-based
Conditions: for Reverse Transkriptase: HIV-Zahl in Lymphocyten-Kultur
Experimental: Lymphocyten-Kulturen aus der Nabelschnur von Neugeborenen (H. Rübsamen-Waigmann et al. "Isolation of Variants of Lymphocytopathic Retroviruses from the Peripheral Blood and Cerebrospinal Fluid of Patients with ABC or AIDS", J. Medical Virology 19, S. 335 bis 344; 1986) wurden mit Viren, die dem Blut von AIDS-Kranken entnommen waren, geimpft. Dazu werden zu 5 ml der Lymphocyten-Kultur (1 · 10⁶ Zellen pro ml) 0,5 ml einer HIV-Suspension gegeben, die 10⁴ bis 10⁵ infektiöse Partikel pro ml enthält. Die Kulturmedien werden mit unterschiedlichen Mengen S-Adenosyl-L-methionintosylat-bis-Sulfat versetzt. Ein Drittel bis zur Hälfte des jeweiligen Kulturmediums werden nach 1 bis 2 Tagen durch frisches Kulturmedium gleicher Zusammensetzung ersetzt.
Retroviren zeichnen sich dadurch aus, daß sie ausschließlich RNA (Ribonukleinsäure) als Nukleinsäure enthalten und eine spezielle Polymerase, nämlich Reverse Transkriptase benötigen, die nach der Infektion in der Wirtszelle aus der Virus-RNA eine in die DNA der Wirtszelle einbaubare Virus-DNA bildet, vgl. H. Rübsamen "Biochemie der Tumorviren", Chemie in unserer Zeit 17, S. 169 bis 180; 1983. Daraus ergibt sich eine Nachweismethode für Retroviren, die auf der für diese typischen Reversen Transkriptase und dem durch diese in die DNA eingebauten Tritium-markierten Thymidin beruht, vgl. H. Rübsamen et al., l.c.:
In Abhängigkeit vom positiven Nachweis der Infektion durch mikroskopische Kontrolle werden nach 3 bis 5 Tagen jeweils 5 ml der überstehenden Kulturflüssigkeit durch Zentrifugieren (1o min bei 10.000 g) geklärt. Die so geklärte Probe wird bei 100.000 g/50 min zentrifugiert und der Rückstand in 60 µl eines Tris-Puffers lysiert (10 mM Tris, 0,2 % Triton X-100, 1 mM EDTA, 5 mM Dithiothreitol, 60 mM KCl, pH 7,3).
Jeweils 30 µl des Lysats werden mit 30 µl Templat (0,01 mg/ml Poly(rA)·oligo (dT) (Pharmacia, Uppsala, Schweden) in 5 mM MgCl₂, 2,4 mM Dithiothreitol, 60 mM KCl und 0,0034 mM Methyl-[³H]thymidin-5'-Triphosphat; 48 Ci/mM, Amersham, Bucks; England) 90 min bei 37° C inkubiert. Die Reaktion wird durch Zugabe von 10-proz. Laurylsarkosin bis zu einer Laurylsarkosin-Endkonzentration von 1,4 % beendet. Die freie und in das RNA/DNA-Hybrid eingebaute Radioaktivität von 10 µl des mit Laurylsarkosin versetzten Inkubats werden dann in üblicher Weise an einem DEAE-Filter getrennt, das nach dem Waschen und Trocknen in eine Szintillationsflüssigkeit gegeben wird. Die Radioaktivität wird dann mit einem Szintillationszähler gemessen. Die eingebaute Radioaktivität (Zerfälle pro min pro 5 ml) nach Abzug des Blindwertes ist dann ein Maß für die in der überstehenden Kulturflüssigkeit enthaltene Reverse Transkriptase und damit für die Menge an Retroviren, die in der Kultur enthalten sind.

C[S+](CC[C@H](N)C(=O)O)C[C@H]1O[C@@H](n2cnc3c(N)ncnc32)[C@H](O)[C@@H]1O (stereo partly drawn) [Adenosylmethionin, S-Adenosyl-L-methionintosylat-bis-Sulfat]
Reverse Transkriptase (Adenosylmethionin 4 µg/ml): 114 000 counts/min und 5 ml
Reverse Transkriptase (Adenosylmethionin 40 µg/ml): 86 000 counts/min und 5 ml
Reverse Transkriptase (Adenosylmethionin 200 µg/ml): 73 000 counts/min und 5 ml
Reverse Transkriptase (Adenosylmethionin 400 µg/ml): 60 000 counts/min und 5 ml
Reverse Transkriptase (Adenosylmethionin 1000 µg/ml): 29 000 counts/min und 5 ml
IC50 (Human immunodeficiency virus 1, Lymphocyte, read-out: Halbwertskonzentration, bei der die Retrovirenkonzentration auf die Hälfte zurückgeht): 100 to 200 µg/mL
